Assay results: patent publication US11390603B2, “Crystalline forms of a biphenyl compound” (THERAVANCE BIOPHARMA R&D IP, LLC, priority 2005, dated 2022)

Legend:
[1] = DMS trace
Description: A dynamic moisture sorption (DMS) assessment (also known as a moisture sorption-desorption profile) was performed using a VTI atmospheric microbalance, SGA-100 system (VTI Corp., Hialeah, Fla. 33016). A sample size of approximately 10 mg was used and the humidity was set at the ambient value at the start of the analysis. A typical DMS analysis consisted of three scans: ambient to 2% relative humidity (RH), 2% RH to 90% RH, 90% RH to 5% RH at a scan rate of 5% RH/step. The mass was measured every two minutes and the RH was changed to the next value (+/−5% RH) when the mass of the sample was stable to within 0.01% for 5 consecutive points.

[2] = DSC trace, 10° C./min
Description: Differential scanning calorimetry (DSC) was performed using a TA Instruments Model Q-10 module with a Thermal Analyst controller. Data were collected and analyzed using TA Instruments Thermal Solutions software. A sample of about 1-4 mg was accurately weighed into an aluminum pan with lid. The sample was evaluated using a linear heating ramp of 10° C./min from ambient temperature to approximately 300° C. The DSC cell was purged with dry nitrogen during use.

[3] = pH 5
Description: A solution was prepared with 0.5 mg/mL freebase equivalents (using a crystalline diphosphate salt prepared as described in Example 3) in 10 mM citrate buffered normal saline, pH 5. […] Less than 0.5% degradation was observed after storage for one month at 40° C./75% RH.

[4] = six weeks at −20° C. (closed) and 40° C./75% RH (open and closed)
Description: At specific intervals, the entire contents of a representative vial was analyzed by the following HPLC method: […]

SMILES	sorption/desorption profile and hygroscopicity [1]	weight gain when exposed to 2-90% RH [1] [%]	weight gain in the humidity range of 40-75% RH [1] [%]	temperature below which no thermal decomposition occurs [2] [°C]	degradation of solution after storage ([3]; 0.5 mg/mL freebase equivalents in 10 mM citrate buffered normal saline, one month at 40° C./75% RH)	solubility of the crystalline salt ([3]; 10 mM citrate buffered normal saline)	solid state stability: change in chemical purity [4]
CN(CCN1CCC(OC(=O)Nc2ccccc2-c2ccccc2)CC1)C(=O)c1ccc(CN2CCC(C(N)=O)CC2)cc1 [Example 11, Crystalline Freebase Biphenyl-2-ylcarbamic Acid 1-(2-{[4-(4-Carbamoylpiperidin-1-ylmethyl)benzoyl]methylamino}ethyl)piperidin-4-yl Ester (Form II)]	reversible sorption/desorption profile with low hygroscopicity	9	1.3	≥ 75	–	–	–
CN(CCN1CCC(OC(=O)Nc2ccccc2-c2ccccc2)CC1)C(=O)c1ccc(CN2CCC(C(N)=O)CC2)cc1.O=C(O)C(=O)O.O=C(O)C(=O)O [Example 7, Crystalline Dioxalate Salt of Biphenyl-2-ylcarbamic Acid 1-(2-{[4-(4-Carbamoylpiperidin-1-ylmethyl)benzoyl]methylamino}ethyl)piperidin-4-yl Ester]	reversible sorption/desorption profile with low hygroscopicity	5.3	1.1	–	–	–	–
CN(CCN1CCC(OC(=O)Nc2ccccc2-c2ccccc2)CC1)C(=O)c1ccc(CN2CCC(C(N)=O)CC2)cc1.O=S(=O)(O)O [Example 5, Crystalline Monosulfate Salt of Biphenyl-2-ylcarbamic Acid 1-(2-{[4-(4-Carbamoylpiperidin-1-ylmethyl)benzoyl]methylamino}ethyl)piperidin-4-yl Ester]	reversible sorption/desorption profile with low hygroscopicity	10	1.8	–	–	–	–
CN(CCN1CCC(OC(=O)Nc2ccccc2-c2ccccc2)CC1)C(=O)c1ccc(CN2CCC(C(N)=O)CC2)cc1.O=P(O)(O)O.O=P(O)(O)O [Example 3, Crystalline Diphosphate Salt of Biphenyl-2-ylcarbamic Acid 1-(2-{[4-(4-Carbamoylpiperidin-1-ylmethyl)benzoyl]methylamino}ethyl)piperidin-4-yl Ester]	reversible sorption/desorption profile with low hygroscopicity	3.3	0.6	≥ 150	Less than 0.5%	greater than 40 mg/mL of freebase equivalent	no detectable change in chemical purity
CN(CCN1CCC(OC(=O)Nc2ccccc2-c2ccccc2)CC1)C(=O)c1ccc(CN2CCC(C(N)=O)CC2)cc1 [Example 10, Crystalline Freebase Biphenyl-2-ylcarbamic Acid 1-(2-{[4-(4-Carbamoylpiperidin-1-ylmethyl)benzoyl]methylamino}ethyl)piperidin-4-yl Ester (Form I)]	reversible sorption/desorption profile with low hygroscopicity	10	1.2	≥ 80	–	–	–
